Literature values, collected in patent US12564579B2, “Topical formulations of (1S)-1-phenyl-2-pyridin-2-ylethanamine” (priority 2020, dated 2026).

Details: clinical trials

N[C@@H](Cc1ccccn1)c1ccccc1 [Lanicemine, (1S)-1-phenyl-2-pyridin-2-ylethanamine]
psychotomimetic side effects: little or no psychotomimetic side effects
study endpoints (development terminated by sponsor): did not meet study endpoints
